Test results as given in ChEMBL document CHEMBL1201862, “PubChem BioAssay data set” (2004).
Values belong to the molecule of their own block, whether it stands above or below them. Activity calls are given as the source filed them.

What was measured:
[1] = Glucagon-like peptide 1 release potency, NCI-H716 cell line, dose-response, half-maximal inhibitory concentration (AID 1117344); assay type: functional, cell-based
[2] = half-maximal inhibitory concentration for glucagon-like peptide-1 release, STC-1 cell line, dose-response (AID 1117345); assay type: functional, cell-based
[3] = biological target: Metabotropic glutamate receptor 7 (Homo sapiens, UniProt Q14831); experiment: mGlu7 positive allosteric modulators, dose response, cell-based, calcium mobilization, Galpha15 (AID 743384); assay type: functional
Metabotropic glutamate receptor 7, sequence (Q14831 whole entry): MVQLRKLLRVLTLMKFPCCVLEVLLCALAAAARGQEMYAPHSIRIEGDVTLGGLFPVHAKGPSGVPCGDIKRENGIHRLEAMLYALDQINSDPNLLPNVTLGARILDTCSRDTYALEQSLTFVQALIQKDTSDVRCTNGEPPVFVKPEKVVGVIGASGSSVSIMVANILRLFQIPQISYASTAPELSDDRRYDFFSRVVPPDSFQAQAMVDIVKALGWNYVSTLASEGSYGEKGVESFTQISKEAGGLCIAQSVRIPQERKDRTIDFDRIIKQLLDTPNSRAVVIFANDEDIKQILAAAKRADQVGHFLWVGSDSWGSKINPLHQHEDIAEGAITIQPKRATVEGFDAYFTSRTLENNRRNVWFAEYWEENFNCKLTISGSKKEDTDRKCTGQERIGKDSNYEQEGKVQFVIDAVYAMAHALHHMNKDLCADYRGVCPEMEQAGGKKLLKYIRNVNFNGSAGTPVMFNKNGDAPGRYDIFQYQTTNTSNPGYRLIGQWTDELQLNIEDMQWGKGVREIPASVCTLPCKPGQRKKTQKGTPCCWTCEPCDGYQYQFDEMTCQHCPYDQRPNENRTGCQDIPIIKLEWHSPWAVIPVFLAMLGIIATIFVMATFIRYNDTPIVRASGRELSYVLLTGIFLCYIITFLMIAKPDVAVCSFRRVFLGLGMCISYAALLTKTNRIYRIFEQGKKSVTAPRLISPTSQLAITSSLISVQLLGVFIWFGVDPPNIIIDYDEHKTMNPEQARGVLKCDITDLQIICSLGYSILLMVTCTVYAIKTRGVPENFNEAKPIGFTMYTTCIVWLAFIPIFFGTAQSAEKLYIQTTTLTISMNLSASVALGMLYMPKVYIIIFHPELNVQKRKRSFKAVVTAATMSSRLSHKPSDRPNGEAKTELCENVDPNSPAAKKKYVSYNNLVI

[4] = biological target: DNA repair and recombination protein RAD54-like (Homo sapiens, UniProt Q92698); experiment: inhibitors of human RAD54 branch migration, confirmation, biochemical, fluorescence, cherry-picked samples, dose series (AID 651657); assay type: functional
DNA repair and recombination protein RAD54-like, sequence (Q92698 whole entry, the tested form may be a part): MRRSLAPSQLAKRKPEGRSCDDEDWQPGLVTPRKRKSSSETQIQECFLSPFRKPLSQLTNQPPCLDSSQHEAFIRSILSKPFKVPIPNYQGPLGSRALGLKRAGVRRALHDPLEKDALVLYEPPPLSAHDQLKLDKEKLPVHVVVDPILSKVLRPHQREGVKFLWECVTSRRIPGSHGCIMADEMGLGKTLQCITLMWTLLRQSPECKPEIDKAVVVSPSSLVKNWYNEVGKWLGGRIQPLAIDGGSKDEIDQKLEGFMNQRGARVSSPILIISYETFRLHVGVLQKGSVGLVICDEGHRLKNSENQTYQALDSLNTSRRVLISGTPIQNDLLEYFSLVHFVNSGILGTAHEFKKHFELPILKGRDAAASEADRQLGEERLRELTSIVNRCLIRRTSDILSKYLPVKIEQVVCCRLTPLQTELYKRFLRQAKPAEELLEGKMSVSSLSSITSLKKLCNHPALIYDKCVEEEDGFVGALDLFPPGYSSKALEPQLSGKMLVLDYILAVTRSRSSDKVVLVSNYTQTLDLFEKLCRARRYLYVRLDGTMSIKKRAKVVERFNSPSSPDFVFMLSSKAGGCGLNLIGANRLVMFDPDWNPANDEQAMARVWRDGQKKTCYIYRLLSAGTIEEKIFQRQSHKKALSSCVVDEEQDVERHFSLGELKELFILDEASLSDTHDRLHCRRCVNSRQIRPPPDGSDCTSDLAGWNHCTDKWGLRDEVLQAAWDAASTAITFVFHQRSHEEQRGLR

[5] = biological target: E3 ubiquitin-protein ligase UHRF1 (Homo sapiens, UniProt Q96T88); experiment: Counterscreen for inhibitors of 5-meCpG-binding domain protein 2 (MBD2): TRFRET-based biochemical high throughput dose response assay to identify inhibitors of binding of ubiquitin-like with PHD and ring finger domains 1 (UHRF1) to methylated oligonucleotide.
[6] = inhibitors of intracellular T. cruzi replication, confirmation, NIH3T3 host cells, beta-gal luminescence (AID 2044); assay type: functional, cell-based;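 further: intracellular parasites grown in NIH/3T3 mouse fibroblasts as host cells; luminescent beta-galactosidase reporter signal from transgenic T. cruzi replicating inside host cells; inhibitors lower the luminescence signal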
[7] = cytotoxicity toward NIH3T3 fibroblasts, dose response, counter-screen, cell-based, ATP luminescence, mouse fibroblasts (AID 2010); assay type: functional;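 further: cells exposed to compound for about 90 hours before reading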
[8] = biological target: T1, Phospholipase D2 (Homo sapiens, UniProt O14939); experiment: PLD2 Cellular Concentration Response Study.; assay type: functional
T1 sequence (O14939 whole entry): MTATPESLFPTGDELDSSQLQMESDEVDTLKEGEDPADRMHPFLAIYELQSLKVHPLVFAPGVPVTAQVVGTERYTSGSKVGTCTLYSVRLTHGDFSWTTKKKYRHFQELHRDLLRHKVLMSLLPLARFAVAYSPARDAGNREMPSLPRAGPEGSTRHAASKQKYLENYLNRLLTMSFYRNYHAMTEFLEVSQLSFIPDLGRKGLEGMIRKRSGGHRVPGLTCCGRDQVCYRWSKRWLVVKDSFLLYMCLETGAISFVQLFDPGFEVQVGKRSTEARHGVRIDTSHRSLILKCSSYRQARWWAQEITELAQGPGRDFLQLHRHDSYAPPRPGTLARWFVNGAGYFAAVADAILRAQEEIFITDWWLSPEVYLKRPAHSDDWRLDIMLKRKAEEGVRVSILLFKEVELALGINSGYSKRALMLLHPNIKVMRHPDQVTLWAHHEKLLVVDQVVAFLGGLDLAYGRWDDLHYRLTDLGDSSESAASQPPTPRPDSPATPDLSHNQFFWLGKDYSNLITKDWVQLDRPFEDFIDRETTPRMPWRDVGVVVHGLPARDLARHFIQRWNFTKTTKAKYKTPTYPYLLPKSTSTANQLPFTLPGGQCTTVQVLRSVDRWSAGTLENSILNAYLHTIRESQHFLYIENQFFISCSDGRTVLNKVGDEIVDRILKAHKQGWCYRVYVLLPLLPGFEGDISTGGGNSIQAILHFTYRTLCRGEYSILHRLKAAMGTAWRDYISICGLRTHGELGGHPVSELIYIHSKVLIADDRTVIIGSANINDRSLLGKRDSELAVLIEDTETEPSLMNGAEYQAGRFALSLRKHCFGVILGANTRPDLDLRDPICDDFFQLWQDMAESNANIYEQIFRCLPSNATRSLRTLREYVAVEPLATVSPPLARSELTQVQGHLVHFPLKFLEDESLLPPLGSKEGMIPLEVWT

[9] = biological target: T1, Phospholipase D2; experiment: Discovery of PLD2 inhibitors using the Purified Enzyme Concentration Response Assay.; assay type: functional
[10] = biological target: Phospholipase D1 (Homo sapiens, UniProt Q13393); experiment: PLD1 Cellular Concentration Response Study.; assay type: functional
Phospholipase D1, sequence (Q13393 whole entry): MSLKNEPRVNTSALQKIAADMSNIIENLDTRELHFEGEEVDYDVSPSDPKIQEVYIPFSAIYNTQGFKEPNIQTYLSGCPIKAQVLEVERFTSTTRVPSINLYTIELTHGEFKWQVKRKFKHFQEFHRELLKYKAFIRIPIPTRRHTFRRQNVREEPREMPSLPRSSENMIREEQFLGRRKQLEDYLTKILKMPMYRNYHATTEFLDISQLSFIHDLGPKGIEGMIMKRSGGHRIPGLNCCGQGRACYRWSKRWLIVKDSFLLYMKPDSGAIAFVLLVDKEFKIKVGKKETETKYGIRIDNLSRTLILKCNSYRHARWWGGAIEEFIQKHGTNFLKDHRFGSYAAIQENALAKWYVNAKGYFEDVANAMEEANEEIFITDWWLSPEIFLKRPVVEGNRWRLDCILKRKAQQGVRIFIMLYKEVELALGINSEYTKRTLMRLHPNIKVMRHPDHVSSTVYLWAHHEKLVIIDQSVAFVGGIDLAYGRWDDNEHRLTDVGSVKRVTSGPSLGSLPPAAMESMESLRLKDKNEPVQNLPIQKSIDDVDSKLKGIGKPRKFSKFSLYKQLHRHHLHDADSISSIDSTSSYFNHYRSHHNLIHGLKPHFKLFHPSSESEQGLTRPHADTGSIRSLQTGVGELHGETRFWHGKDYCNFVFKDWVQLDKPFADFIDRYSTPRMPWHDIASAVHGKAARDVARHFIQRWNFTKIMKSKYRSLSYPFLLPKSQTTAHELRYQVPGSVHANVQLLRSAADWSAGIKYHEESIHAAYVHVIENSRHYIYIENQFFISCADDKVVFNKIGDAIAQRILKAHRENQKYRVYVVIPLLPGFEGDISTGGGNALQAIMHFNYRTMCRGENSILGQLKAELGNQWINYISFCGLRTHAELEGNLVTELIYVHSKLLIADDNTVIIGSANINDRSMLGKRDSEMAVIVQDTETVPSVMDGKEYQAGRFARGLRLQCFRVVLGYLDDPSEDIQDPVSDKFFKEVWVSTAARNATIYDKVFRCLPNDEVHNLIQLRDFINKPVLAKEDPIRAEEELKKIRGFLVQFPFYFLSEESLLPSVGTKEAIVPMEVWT

[11] = Artemis endonuclease inhibitor potency, dose response, biochemical, fluorescence intensity (AID 720701); assay type: functional;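 further: Artemis endonuclease enzyme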
[12] = biological target: Transthyretin (Homo sapiens, UniProt P02766); experiment: Luminescence-based cell-based high throughput dose response assay to identify activators of Transthyretin (TTR) transcription.; assay type: functional
[13] = biological target: T2, Calpain-2 catalytic subunit (Sus scrofa, UniProt P43367); experiment: pig calpain II inhibitor potency, dose response, biochemical, fluorogenic peptide substrate (AID 1420); assay type: functional
T2 sequence (P43367 whole entry): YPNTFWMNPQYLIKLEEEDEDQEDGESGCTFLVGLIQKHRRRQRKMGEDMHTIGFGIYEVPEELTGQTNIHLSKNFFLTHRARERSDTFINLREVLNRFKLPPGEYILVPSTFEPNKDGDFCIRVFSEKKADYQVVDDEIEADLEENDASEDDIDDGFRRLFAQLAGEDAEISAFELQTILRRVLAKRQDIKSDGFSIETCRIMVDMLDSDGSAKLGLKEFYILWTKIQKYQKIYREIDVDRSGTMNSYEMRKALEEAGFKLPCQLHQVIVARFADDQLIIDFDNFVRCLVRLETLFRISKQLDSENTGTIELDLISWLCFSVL

[14] = biological target: T3, RNA-binding protein pos-1 (Caenorhabditis elegans, UniProt G5EF15); experiment: inhibitors of POS-1/mex-3 RNA binding, dose response, biochemical, fluorescence polarization (AID 1964);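 further: purified POS-1 fused to maltose binding protein made in E. coli; potency of compounds blocking POS-1 binding to fluorescent RNA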
T3 sequence (G5EF15 whole entry): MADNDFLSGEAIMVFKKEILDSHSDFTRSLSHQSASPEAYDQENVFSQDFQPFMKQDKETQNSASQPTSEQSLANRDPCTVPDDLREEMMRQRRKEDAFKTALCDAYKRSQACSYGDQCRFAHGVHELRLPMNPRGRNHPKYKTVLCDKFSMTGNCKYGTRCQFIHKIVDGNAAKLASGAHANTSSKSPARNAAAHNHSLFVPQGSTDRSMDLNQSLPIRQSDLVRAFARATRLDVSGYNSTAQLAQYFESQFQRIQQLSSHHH

[15] = biological target: T4, Zinc finger protein mex-5 (Caenorhabditis elegans, UniProt Q9XUB2); experiment: MEX-5/TCR-2 RNA interaction inhibitors, dose response, biochemical, C. elegans, fluorescence polarization (AID 1960)
T4 sequence (Q9XUB2 whole entry): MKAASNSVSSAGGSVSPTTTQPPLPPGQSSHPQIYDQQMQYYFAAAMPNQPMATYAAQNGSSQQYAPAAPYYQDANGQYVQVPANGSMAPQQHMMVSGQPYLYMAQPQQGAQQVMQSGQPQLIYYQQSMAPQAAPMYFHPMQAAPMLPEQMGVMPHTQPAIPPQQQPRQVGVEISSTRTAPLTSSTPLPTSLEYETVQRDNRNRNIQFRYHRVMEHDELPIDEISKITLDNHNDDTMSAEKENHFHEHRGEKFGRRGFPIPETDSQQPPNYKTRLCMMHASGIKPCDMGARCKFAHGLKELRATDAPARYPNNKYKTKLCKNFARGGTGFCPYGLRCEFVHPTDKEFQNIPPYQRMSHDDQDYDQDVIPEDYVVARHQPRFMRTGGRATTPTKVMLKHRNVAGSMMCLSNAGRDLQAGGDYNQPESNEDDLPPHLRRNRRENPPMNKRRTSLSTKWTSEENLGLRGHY

[16] = biological target: Genome polyprotein (dengue virus type 2, UniProt P29990); experiment: Dengue-2 NS5 methyltransferase inhibitors, primary screen, biochemical, confirmation dose response (AID 588689); assay type: functional
[17] = biological target: T5, Histone-lysine N-methyltransferase NSD2 (Homo sapiens, UniProt O96028); assay type: biochemical
T5 sequence (O96028 whole entry): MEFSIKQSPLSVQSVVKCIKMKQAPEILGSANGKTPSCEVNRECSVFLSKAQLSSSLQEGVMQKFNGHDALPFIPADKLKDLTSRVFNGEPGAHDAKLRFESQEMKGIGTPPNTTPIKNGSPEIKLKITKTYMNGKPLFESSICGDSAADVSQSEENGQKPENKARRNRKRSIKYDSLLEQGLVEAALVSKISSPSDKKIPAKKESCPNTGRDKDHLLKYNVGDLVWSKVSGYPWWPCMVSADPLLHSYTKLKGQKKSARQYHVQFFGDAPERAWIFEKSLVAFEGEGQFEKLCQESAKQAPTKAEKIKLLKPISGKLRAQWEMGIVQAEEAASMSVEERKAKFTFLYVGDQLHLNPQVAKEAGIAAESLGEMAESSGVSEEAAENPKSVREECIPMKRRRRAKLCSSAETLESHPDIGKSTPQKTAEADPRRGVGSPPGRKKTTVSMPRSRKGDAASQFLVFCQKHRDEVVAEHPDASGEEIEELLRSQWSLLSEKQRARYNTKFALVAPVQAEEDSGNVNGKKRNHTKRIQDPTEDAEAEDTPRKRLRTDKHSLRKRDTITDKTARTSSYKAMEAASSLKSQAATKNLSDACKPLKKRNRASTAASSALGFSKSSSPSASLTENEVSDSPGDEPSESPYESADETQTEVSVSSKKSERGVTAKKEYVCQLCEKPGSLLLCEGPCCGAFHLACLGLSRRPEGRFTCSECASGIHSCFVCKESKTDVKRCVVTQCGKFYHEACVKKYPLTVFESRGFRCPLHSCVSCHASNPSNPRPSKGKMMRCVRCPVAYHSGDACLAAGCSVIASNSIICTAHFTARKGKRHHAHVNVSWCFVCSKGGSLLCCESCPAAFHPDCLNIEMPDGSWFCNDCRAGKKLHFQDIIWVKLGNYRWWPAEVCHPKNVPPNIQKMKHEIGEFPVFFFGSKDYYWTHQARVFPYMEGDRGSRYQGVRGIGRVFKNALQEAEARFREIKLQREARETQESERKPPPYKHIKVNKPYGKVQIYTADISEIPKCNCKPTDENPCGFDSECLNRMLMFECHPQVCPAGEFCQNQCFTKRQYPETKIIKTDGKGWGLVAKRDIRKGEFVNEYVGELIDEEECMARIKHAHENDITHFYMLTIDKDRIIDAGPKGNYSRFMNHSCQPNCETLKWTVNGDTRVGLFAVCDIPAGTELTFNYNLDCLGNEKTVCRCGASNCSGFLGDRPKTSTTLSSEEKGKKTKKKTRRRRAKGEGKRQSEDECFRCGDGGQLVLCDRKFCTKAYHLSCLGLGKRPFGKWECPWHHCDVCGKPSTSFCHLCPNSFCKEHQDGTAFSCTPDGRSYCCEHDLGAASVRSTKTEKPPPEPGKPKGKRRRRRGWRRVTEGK

[18] = biological target: RNA-editing ligase 1, mitochondrial (Trypanosoma brucei brucei, UniProt P86926); experiment: TbREL1 ligase inhibitors, dose response, biochemical, fluorescence, Trypanosoma brucei (AID 1117295); assay type: functional
RNA-editing ligase 1, mitochondrial, sequence (P86926 whole entry): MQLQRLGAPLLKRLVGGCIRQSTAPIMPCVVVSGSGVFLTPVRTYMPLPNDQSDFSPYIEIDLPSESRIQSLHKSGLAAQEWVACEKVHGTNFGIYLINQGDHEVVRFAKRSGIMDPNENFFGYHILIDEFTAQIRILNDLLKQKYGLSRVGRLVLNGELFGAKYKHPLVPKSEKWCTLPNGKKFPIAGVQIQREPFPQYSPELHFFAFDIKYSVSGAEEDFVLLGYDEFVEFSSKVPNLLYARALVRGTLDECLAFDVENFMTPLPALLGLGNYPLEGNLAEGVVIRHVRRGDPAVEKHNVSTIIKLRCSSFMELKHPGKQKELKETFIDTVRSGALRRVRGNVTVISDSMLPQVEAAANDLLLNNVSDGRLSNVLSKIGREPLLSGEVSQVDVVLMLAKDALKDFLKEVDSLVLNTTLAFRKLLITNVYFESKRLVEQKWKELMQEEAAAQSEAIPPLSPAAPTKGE

[19] = biological target: T6, Mannose-6-phosphate isomerase (Homo sapiens, UniProt P34949); experiment: human PMI inhibitors, high substrate, primary screen, biochemical, fluorescence intensity, high mannose 6-phosphate (AID 1220)
T6 sequence (P34949 whole entry): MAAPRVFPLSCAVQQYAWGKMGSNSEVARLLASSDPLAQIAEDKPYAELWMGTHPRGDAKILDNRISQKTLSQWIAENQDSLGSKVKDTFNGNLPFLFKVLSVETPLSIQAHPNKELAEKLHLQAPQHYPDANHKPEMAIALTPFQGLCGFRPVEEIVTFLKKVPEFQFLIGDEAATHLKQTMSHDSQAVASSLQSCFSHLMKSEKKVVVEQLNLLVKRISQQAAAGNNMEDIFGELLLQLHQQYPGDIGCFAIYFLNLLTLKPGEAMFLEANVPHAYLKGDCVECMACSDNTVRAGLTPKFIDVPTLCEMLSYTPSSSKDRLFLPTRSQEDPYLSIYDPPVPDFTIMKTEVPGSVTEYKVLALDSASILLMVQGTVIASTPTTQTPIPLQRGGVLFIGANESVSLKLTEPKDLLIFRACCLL

[20] = Jurkat T cell cytotoxicity, dose response, cytotoxicity control for P. falciparum gametocyte viability project, luminescence (AID 1117277); assay type: functional, cell-based;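 further: potency reflects loss of cellular ATP meaning fewer viable cells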
[21] = P. falciparum late gametocyte killing, dose response, luminescence (AID 1117278); assay type: functional, cell-based;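 further: gametocytes exposed to compound for 24 hours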
[22] = cytotoxicity in HepG2 cells, dose response, cytotoxicity control, cell-based, CellTiter-Glo luminescence, cherry-pick, set 4 (AID 743480); assay type: functional
[23] = HEK293T cell cytotoxicity, dose response, cytotoxicity control, CellTiter-Glo luminescence, cherry-picked samples, set 4 (AID 743441); assay type: functional, cell-based; details: HEK293
[24] = cytotoxicity in A549 cells, dose response, cytotoxicity control, cell-based, CellTiter-Glo luminescence, cherry-pick (AID 743484); assay type: functional
[25] = P. falciparum ATP4 D1247Y mutant growth inhibitors, dose response, NITD609-resistant line, SYBR Green, dry powder (AID 1159571); assay type: functional, cell-based;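 further: parasites synchronized at ring stage by sorbitol before testing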
[26] = P. falciparum Dd2 growth inhibitors, dose response, SYBR Green, dry powder samples (AID 1159566); assay type: functional, cell-based;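 further: potency for growth inhibition with lower SYBR green DNA signal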
[27] = P. falciparum Dd2 growth inhibitors, dose response, SYBR Green, cherry-picked samples (AID 1159567); assay type: functional, cell-based
[28] = P. falciparum 3D7-ScDHODH growth inhibitors, dose response, SYBR Green, dry powder samples (AID 1159570); assay type: functional, cell-based;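 further: parasite growth measured after 72 hours of compound exposure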
[29] = biological target: Glutathione-S-transferase (Schistosoma japonicum, UniProt Q26513); experiment: biotin-GST/anti-GST TR-FRET signal inhibitors, dose response, artefact control for Vif-APOBEC3G degradation inhibitor project, biochemical (AID 1117362); assay type: functional
Glutathione-S-transferase, sequence (Q26513 whole entry): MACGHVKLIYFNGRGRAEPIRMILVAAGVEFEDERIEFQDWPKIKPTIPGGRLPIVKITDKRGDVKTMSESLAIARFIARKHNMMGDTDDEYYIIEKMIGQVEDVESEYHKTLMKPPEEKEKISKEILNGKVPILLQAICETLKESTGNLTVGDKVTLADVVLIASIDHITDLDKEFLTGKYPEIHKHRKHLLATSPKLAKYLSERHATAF

[30] = biological target: Large T antigen (Simian virus 40, UniProt P03070); assay type: functional, Betapolyomavirus macacae;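 further: Confirmatory-stage PubChem screen for compounds that inhibit SV40 T antigen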
Large T antigen, sequence (P03070 whole entry): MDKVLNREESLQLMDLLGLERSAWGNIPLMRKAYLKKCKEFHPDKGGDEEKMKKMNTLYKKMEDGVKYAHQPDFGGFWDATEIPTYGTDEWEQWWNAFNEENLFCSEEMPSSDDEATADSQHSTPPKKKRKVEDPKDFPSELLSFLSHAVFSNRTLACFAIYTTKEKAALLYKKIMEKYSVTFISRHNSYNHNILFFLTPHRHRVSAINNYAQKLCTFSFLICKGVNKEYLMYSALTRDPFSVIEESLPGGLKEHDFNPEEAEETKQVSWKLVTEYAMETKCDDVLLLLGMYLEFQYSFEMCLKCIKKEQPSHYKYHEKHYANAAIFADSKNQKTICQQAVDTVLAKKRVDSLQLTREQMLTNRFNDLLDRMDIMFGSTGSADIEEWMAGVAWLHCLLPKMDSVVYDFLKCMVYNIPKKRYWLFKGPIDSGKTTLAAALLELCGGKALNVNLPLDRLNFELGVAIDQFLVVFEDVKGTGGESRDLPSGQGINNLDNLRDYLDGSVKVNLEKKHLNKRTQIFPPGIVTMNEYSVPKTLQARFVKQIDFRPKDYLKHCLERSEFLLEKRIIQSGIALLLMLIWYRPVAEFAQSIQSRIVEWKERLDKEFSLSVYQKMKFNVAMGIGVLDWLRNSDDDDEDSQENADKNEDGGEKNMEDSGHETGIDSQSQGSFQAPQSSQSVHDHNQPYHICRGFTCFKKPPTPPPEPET

[31] = PAX2 cell-based inhibition, dose response, selectivity assay for PAX8 inhibitor project, plate reader, dry powder samples (AID 743048); assay type: functional;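 further: HEK293 cells carrying a WT1 promoter luciferase reporter driven by expressed Pax2; potency is for inhibition of Pax2 driven reporter signal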
[32] = cytotoxicity in COV434 cells, dose response, cytotoxicity control for PAX8 inhibitor project, cell-based, plate reader, dry powder, SA7 (AID 743145); assay type: functional
[33] = PAX5 activity inhibitors, dose response, selectivity assay for PAX8 inhibitor project, cell-based, plate reader, dry powder samples (AID 743047); assay type: functional;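 further: HEK293 cells carrying a Pax5 driven CD19 promoter luciferase reporter; potency of inhibitors that lower reporter luminescence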
[34] = cytotoxicity dependent on PAX8, dose response, cell-based, plate reader, dry powder (AID 743049); assay type: functional

SMILES: CC(C)(C)CC(C)(C)c1ccc(O)cc1
IC50 [1]: 25.9 µM (inactive) | IC50 [2]: 8.37 µM (inactive)

EC50 [3]: 2.4 µM (active)
SMILES: COC(=O)c1ccc(-n2c(C)cc(C(=O)COc3ccc(NC(C)=O)cc3)c2C)cc1

SMILES: Cc1ccc2nc(Cl)c3cc(C(=O)NCCCN4CCCC4)sc3c2c1
AC50 [4]: 11.4 µM (active) | IC50 [5]: > 43.8 µM (inactive) | EC50 [6]: 1.65 µM (active) | EC50 [7]: 9.72 µM (active)

SMILES: O=C(NCCN1CCC2(CC1)C(=O)NCN2Cc1cccnc1)c1cc2ccccc2o1
IC50 [8]: 2.5 µM (active) | IC50 [9]: 12.5 µM (active) | IC50 [10]: 20 µM (active)

IC50 [11]: 18.7 µM (active)
SMILES: O=C(Nc1nc2n(n1)C(c1ccccc1)CC(c1ccc(Cl)cc1)N2)c1ccco1 (stereo unspecified)

EC50 [12]: > 167 µM (inactive)
SMILES: C/C(=N\Nc1ncc(Br)cn1)c1cccc([N+](=O)[O-])c1

IC50 [13]: > 50 µM (not active) | EC50 [14]: 35.5 µM (active) | EC50 [15]: 0.868 µM (active) | IC50 [16]: 33.6 µM (active) | AC50 [17]: 17.3 µM (active) | IC50 [18]: > 96.6 µM (inactive) | IC50 [19]: 19.4 µM (active)
SMILES: CCOC(=O)c1ccc(CC(=O)c2ccc(O)c(O)c2O)o1

SMILES: CSc1nccc(-c2cc(Cl)sc2Cl)n1
IC50 [20]: > 83.3 µM (inactive) | IC50 [21]: > 109 µM (inactive)

SMILES: O=C(COC(=O)c1cccc(O)c1)Nc1ccc(Cl)cc1C(=O)c1ccccc1
IC50 [13]: 17.9 µM (not active) | AC50 [22]: > 52 µM (inactive) | AC50 [23]: > 52 µM (inactive) | AC50 [24]: 32.3 µM (active)

SMILES: COc1cccc(C#Cc2cnc3c(c2)C(=O)N([C@@H](C)CO)C[C@H](C)[C@@H](CN(C)C(=O)C2CCCCC2)O3)c1
AC50 [25]: 0.972 µM (active) | AC50 [26]: 0.635 µM (active) | AC50 [27]: 0.889 µM (active) | AC50 [28]: 0.783 µM (active)

IC50 [29]: > 100 µM (active) | IC50 [19]: > 50 µM (not active) | IC50 [30]: 58.4 µM (active)
SMILES: CN(C(=S)Nc1cccnc1)c1ccc(O)cc1

SMILES: N#C[C@H]1[C@@H](c2ccc(C3=CCCC3)cc2)[C@@H](CO)N1C(=O)NC1CCCCC1
AC50 [31]: 52.1 µM (active) | AC50 [32]: > 70 µM (inactive) | AC50 [33]: > 70 µM (inactive) | AC50 [34]: 61.5 µM (active)
